Reference: patent US12522595B2, “Bicyclic ether O-glycoprotein-2-acetamido-2-deoxy-3-D-glucopyranosidase inhibitors” (BIOGEN MA INC., priority 2019, dated 2026)

Target: T1, Recombinant full length human OGA enzyme (Homo sapiens, UniProt O60502)
T1 construct: Recombinant full length human OGA enzyme was purchased from Origene; purchased Origene
T1 sequence (O60502 1-916): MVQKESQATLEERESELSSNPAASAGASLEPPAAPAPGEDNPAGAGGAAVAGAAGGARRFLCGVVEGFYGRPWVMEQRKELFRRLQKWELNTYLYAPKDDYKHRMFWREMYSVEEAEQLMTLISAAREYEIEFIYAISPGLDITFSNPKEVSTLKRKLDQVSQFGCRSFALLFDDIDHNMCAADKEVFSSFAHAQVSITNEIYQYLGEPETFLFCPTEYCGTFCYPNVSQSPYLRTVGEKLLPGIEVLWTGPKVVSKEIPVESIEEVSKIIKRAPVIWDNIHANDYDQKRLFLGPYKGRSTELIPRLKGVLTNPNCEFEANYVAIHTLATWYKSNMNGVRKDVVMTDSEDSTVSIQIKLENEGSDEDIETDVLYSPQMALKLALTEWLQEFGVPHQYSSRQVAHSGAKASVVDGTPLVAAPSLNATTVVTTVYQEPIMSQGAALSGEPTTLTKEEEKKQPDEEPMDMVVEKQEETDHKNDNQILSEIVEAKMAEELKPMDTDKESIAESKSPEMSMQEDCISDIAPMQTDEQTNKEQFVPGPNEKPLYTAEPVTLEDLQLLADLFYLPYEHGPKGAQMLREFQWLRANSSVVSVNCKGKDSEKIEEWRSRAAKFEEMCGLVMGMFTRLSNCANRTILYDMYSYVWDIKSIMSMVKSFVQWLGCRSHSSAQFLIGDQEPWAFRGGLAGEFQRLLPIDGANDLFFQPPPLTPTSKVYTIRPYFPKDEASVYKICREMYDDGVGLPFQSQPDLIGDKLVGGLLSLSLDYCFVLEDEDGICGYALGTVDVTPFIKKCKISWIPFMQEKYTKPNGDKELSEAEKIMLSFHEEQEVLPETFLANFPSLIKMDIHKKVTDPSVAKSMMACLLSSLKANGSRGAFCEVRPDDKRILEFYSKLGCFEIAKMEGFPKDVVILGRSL
Test: OGA enzyme inhibition biochemical assay
Settings: 1 nM OGA, 100 μM 4-MUGlcNAc (Km), pH 6.4, 90 minutes at room temperature, 10-point dose-response from 20 μM
Summary of the method: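 1 nM OGA with 100 μM 4-MUGlcNAc (Km) in McIlvaine buffer pH 6.4, 0.01% BSA, 90 min at room temperature; quenched with 3M glycine pH 10, fluorescence Ex 355/Em 460 nm. 10-point, 4-fold dilutions from 20 μM; 4-parameter variable-slope fit.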

SMILES | IC50 [nM]
COc1ccc2ccc(O[C@@H]3C[C@H](C)N(Cc4sc(NC(C)=O)nc4F)C3)nc2n1 [Example 167, N-(4-fluoro-5-(((2S,4R)-4-((7-methoxy-1,8-naphthyridin-2-yl)oxy)-2-methylpyrrolidin-1-yl)methyl)thiazol-2-yl)acetamide] | < 1
CC(=O)Nc1ncc(CN2C[C@H](Oc3nccc4ccccc34)C[C@@H]2C)s1 [Example 26, N-(5-(((2S,4R)-4-(isoquinolin-1-yloxy)-2-methylpyrrolidin-1-yl)methyl)thiazol-2-yl)acetamide] | 4.5
CC(=O)Nc1nc(F)c(CN2C[C@H](Oc3ccn4cnnc4c3)C[C@@H]2C)s1 [Example 146, N-(5-(((2S,4R)-4-([1,2,4]triazolo[4,3-a]pyridin-7-yloxy)-2-methylpyrrolidin-1-yl)methyl)-4-fluorothiazol-2-yl)acetamide] | < 1
COc1cccn2nc(O[C@@H]3C[C@H](C)N(Cc4sc(NC(C)=O)nc4F)C3)nc12 [Example 148, N-(4-fluoro-5-(((2S,4R)-4-((8-methoxy-[1,2,4]triazolo[1,5-a]pyridin-2-yl)oxy)-2-methylpyrrolidin-1-yl)methyl)thiazol-2-yl)acetamide] | < 1
CC(=O)Nc1nc(F)c(CN2C[C@H](Oc3ccc4cnccc4n3)C[C@@H]2C)s1 [Example 120, N-(5-(((2S,4R)-4-((1,6-naphthyridin-2-yl)oxy)-2-methylpyrrolidin-1-yl)methyl)-4-fluorothiazol-2-yl)acetamide] | < 1
CC(=O)Nc1ncc(CN2C[C@H](Oc3ccn4nccc4n3)C[C@@H]2C)s1 [Example 61, N-(5-(((2S,4R)-2-methyl-4-(pyrazolo[1,5-a]pyrimidin-5-yloxy)pyrrolidin-1-yl)methyl)thiazol-2-yl)acetamide] | < 1
CC(=O)Nc1ncc(CN2C[C@H](Oc3ncnc4sc(C(F)F)nc34)C[C@@H]2C)s1 [Example 36] | 780
CC(=O)Nc1nc(F)c(CN2C[C@H](Oc3ncnc4ccc(F)cc34)C[C@@H]2C)s1 [Example 123, N-(4-fluoro-5-(((2S,4R)-4-((6-fluoroquinazolin-4-yl)oxy)-2-methylpyrrolidin-1-yl)methyl)thiazol-2-yl)acetamide] | 4.1
CC(=O)Nc1ncc(CN2C[C@H](Oc3nccc4cc(F)ccc34)C[C@@H]2C)s1 [Example 27, N-(5-(((2S,4R)-4-((6-fluoroisoquinolin-1-yl)oxy)-2-methylpyrrolidin-1-yl)methyl)thiazol-2-yl)acetamide] | 4
CC(=O)Nc1nc(F)c(CN2C[C@H](Oc3noc4cc(F)ccc34)C[C@@H]2C)s1 [Example 126, N-(4-fluoro-5-(((2S,4R)-4-((6-fluorobenzo[d]isoxazol-3-yl)oxy)-2-methylpyrrolidin-1-yl)methyl)thiazol-2-yl)acetamide] | 3.1
CC(=O)Nc1ncc(CN2C[C@H](Oc3ccc4ccn(C)c4n3)C[C@@H]2C)s1 [Example 162, N-(5-(((2S,4R)-2-methyl-4-((1-methyl-1H-pyrrolo[2,3-b]pyridin-6-yl)oxy)pyrrolidin-1-yl)methyl)thiazol-2-yl)acetamide] | < 1
CC(=O)Nc1ncc(CN2C[C@H](Oc3ncnc4ccoc34)C[C@@H]2C)s1 [Example 71, N-(5-(((2S,4R)-4-(furo[3,2-d]pyrimidin-4-yloxy)-2-methylpyrrolidin-1-yl)methyl)thiazol-2-yl)acetamide] | < 1
CC(=O)Nc1nc(F)c(CN2C[C@H](Oc3nccn4cc(C)nc34)C[C@@H]2C)s1 [Example 103, N-(4-fluoro-5-(((2S,4R)-2-methyl-4-((2-methylimidazo[1,2-a]pyrazin-8-yl)oxy)pyrrolidin-1-yl)methyl)thiazol-2-yl)acetamide] | < 1
CC(=O)Nc1ncc(CN2C[C@H](Oc3nn4c(C(F)(F)F)nnc4c(C)c3C)C[C@@H]2C)s1 [Example 20, N-(5-(((2S,4R)-4-((7,8-dimethyl-3-(trifluoromethyl)-[1,2,4]triazolo[4,3-b]pyridazin-6-yl)oxy)-2-methylpyrrolidin-1-yl)methyl)thiazol-2-yl)acetamide] | 1.6
CC(=O)Nc1ncc(CN2C[C@H](Oc3nccn4nc(C(F)(F)F)cc34)C[C@@H]2C)s1 [Example 28, N-(5-(((2S,4R)-2-methyl-4-((2-(trifluoromethyl)pyrazolo[1,5-a]pyrazin-4-yl)oxy)pyrrolidin-1-yl)methyl)thiazol-2-yl)acetamide] | 5.4
CCc1cc2c(O[C@@H]3C[C@H](C)N(Cc4cnc(NC(C)=O)s4)C3)nccc2o1 [Example 15, N-(5-(((2S,4R)-4-((2-ethylfuro[3,2-c]pyridin-4-yl)oxy)-2-methylpyrrolidin-1-yl)methyl)thiazol-2-yl)acetamide] | < 1
COc1ccc2ccc(O[C@@H]3C[C@H](C)N(Cc4cnc(NC(C)=O)s4)C3)nc2n1 [Example 166, N-(5-(((2S,4R)-4-((7-methoxy-1,8-naphthyridin-2-yl)oxy)-2-methylpyrrolidin-1-yl)methyl)thiazol-2-yl)acetamide] | < 1
CC(=O)Nc1ncc(CN2C[C@H](Oc3nccc4oc(C(N)=O)cc34)C[C@@H]2C)s1 [Example 25, 4-(((3R,5S)-1-((2-acetamidothiazol-5-yl)methyl)-5-methylpyrrolidin-3-yl)oxy)furo[3,2-c]pyridine-2-carboxamide] | 2.8
CC(=O)Nc1ncc(CN2C[C@H](Oc3ccc4sccc4n3)C[C@@H]2C)s1 [Example 4, N-(5-(((2S,4R)-2-methyl-4-(thieno[3,2-b]pyridin-5-yloxy)pyrrolidin-1-yl)methyl)thiazol-2-yl)acetamide] | < 1
CC(=O)Nc1nc(F)c(CN2C[C@H](Oc3ccnc4ccnn34)C[C@@H]2C)s1 [Example 104, N-(4-fluoro-5-(((2S,4R)-2-methyl-4-(pyrazolo[1,5-a]pyrimidin-7-yloxy)pyrrolidin-1-yl)methyl)thiazol-2-yl)acetamide] | 3.8
CC(=O)Nc1nc(F)c(CN2C[C@H](Oc3nc4ncccc4o3)C[C@@H]2C)s1 [Example 158, N-(4-fluoro-5-(((2S,4R)-2-methyl-4-(oxazolo[4,5-b]pyridin-2-yloxy)pyrrolidin-1-yl)methyl)thiazol-2-yl)acetamide] | < 1
CC(=O)Nc1nc(F)c(CN2C[C@H](Oc3cccc4cn(C)nc34)C[C@@H]2C)s1 [Example 161, N-(4-fluoro-5-(((2S,4R)-2-methyl-4-((2-methyl-2H-indazol-7-yl)oxy)pyrrolidin-1-yl)methyl)thiazol-2-yl)acetamide] | < 1
CC(=O)Nc1ncc(CN2C[C@H](Oc3ccc4ccnn4c3)C[C@@H]2C)s1 [Example 155, N-(5-(((2S,4R)-2-methyl-4-(pyrazolo[1,5-a]pyridin-6-yloxy)pyrrolidin-1-yl)methyl)thiazol-2-yl)acetamide] | < 1
CC(=O)Nc1nc(F)c(CN2C[C@H](Oc3ccc4nnn(C)c4n3)C[C@@H]2C)s1 [Example 150, N-(4-fluoro-5-(((2S,4R)-2-methyl-4-((3-methyl-3H-[1,2,3]triazolo[4,5-b]pyridin-5-yl)oxy)pyrrolidin-1-yl)methyl)thiazol-2-yl)acetamide] | < 1
CC(=O)Nc1ncc(CN2C[C@H](Oc3cc(C)nc4ccccc34)C[C@@H]2C)s1 [Example 13, N-(5-(((2S,4R)-2-methyl-4-((2-methylquinolin-4-yl)oxy)pyrrolidin-1-yl)methyl)thiazol-2-yl)acetamide] | < 1
COc1cc2cnc(O[C@@H]3C[C@H](C)N(Cc4sc(NC(C)=O)nc4F)C3)cc2cc1F [Example 130, N-(4-fluoro-5-(((2S,4R)-4-((6-fluoro-7-methoxyisoquinolin-3-yl)oxy)-2-methylpyrrolidin-1-yl)methyl)thiazol-2-yl)acetamide] | < 1
CC(=O)Nc1ncc(CN2C[C@H](Oc3cc4cn(C)nc4cn3)C[C@@H]2C)s1 [Example 87, N-(5-(((2S,4R)-2-methyl-4-((2-methyl-2H-pyrazolo[3,4-c]pyridin-5-yl)oxy)pyrrolidin-1-yl)methyl)thiazol-2-yl)acetamide] | < 1
CC(=O)Nc1nc(F)c(CN2C[C@H](Oc3ccc4cn(C)nc4c3)C[C@@H]2C)s1 [Example 51, N-(4-fluoro-5-(((2S,4R)-2-methyl-4-((2-methyl-2H-indazol-6-yl)oxy)pyrrolidin-1-yl)methyl)thiazol-2-yl)acetamide] | < 1
